{
  "source": "patent US9951021B2",
  "about": "“Compounds for inhibiting c-Myc/Max/DNA complex formation” (NATIONAL CANCER CENTER, priority 2016, dated 2018)",
  "data": [
    {"target": "T1, recombinant c-Myc/Max (Homo sapiens, UniProt P01106+P61244)", "T1 construct": "made in house", "T1 sequence (P01106 whole entry)": "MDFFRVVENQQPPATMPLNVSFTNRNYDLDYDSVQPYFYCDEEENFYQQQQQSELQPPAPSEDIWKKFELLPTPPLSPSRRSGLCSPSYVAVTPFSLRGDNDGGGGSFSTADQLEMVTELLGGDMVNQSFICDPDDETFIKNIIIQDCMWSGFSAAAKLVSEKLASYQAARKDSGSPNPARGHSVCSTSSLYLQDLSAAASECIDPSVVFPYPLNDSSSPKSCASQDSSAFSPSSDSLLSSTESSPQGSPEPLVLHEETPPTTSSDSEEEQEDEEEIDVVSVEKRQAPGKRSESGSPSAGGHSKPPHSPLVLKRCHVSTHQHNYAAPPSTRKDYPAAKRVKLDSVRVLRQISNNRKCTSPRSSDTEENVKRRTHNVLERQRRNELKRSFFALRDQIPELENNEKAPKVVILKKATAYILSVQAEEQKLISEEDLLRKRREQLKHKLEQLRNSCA", "T1 sequence (P61244 whole entry)": "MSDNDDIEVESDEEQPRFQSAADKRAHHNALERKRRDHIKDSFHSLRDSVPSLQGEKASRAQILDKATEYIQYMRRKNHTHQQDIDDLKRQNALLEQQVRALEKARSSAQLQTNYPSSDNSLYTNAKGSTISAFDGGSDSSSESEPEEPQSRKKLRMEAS", "assay": "Electrophoretic mobility shift assay (EMSA): inhibitory activity on DNA binding of recombinant c-Myc/Max", "settings": "read-out: protein assay IC50", "protocol": "1) Preparation of Recombinant c-Myc and Max Proteins\nRecombinant proteins were prepared as described in the following references: K. C. Jung et al., Fatty Acids, Inhibitors for the DNA Binding of c-Myc/Max Dimer, Suppress Proliferation and Induce Apoptosis of Differentiated HL-60 Human Leukemia Cell, Leukemia, 2006, 20(1), 122-7 or Kyung-Chae Jeong et al., Small-Molecule Inhibitors of c-Myc Transcriptional Factor Suppress Proliferation and Induce Apoptosis of Promyelocytic Leukemia Cell via Cell Cycle Arrest, Mol. BioSyst., 2010, 6, 1503-1509.\n2) Electrophoretic Mobility Shift Assay (EMSA)\nThe inhibitory activity of each candidate compound on DNA binding of recombinant c-Myc/Max was measured using an electrophoretic mobility shift assay (EMSA). The ratio of protein-DNA complexes in each sample was evaluated by measuring band intensity. The oligonucleotides (E-box) corresponding to the consensus binding site of Myc/Max were dimerized through an annealing process. The protein mixture was incubated at room temperature for 5 minutes, and a DMSO solution containing each candidate compound was added thereto. The mixture was further incubated for 5 minutes, and the biotinylated DNA was added. To achieve a state of equilibrium, the final mixture was incubated at room temperature for 10 minutes. The protein-DNA complexes were separated from unbound free DNA by pre-electrophoresis using 8% polyacrylamide gel and 1×TBE buffer. After pre-electrophoresis, electrophoresis was performed at 120 V for 1 hour in 1×TBE buffer. Each band was visualized using HRP-conjugated streptavidin and an ECL solution, and band intensity was measured using image analysis software.", "units": {"IC50": "µM"}, "values": [
      {"compound": "CC(=O)c1c([S+]([O-])Cc2cc(C)on2)[nH]c2c(Br)ccc(Cl)c2c1=O", "note": "(centres unmarked) [Compound 51, 3-acetyl-8-bromo-5-chloro-2-(((5-methylisoxazol-3-yl)methyl)sulfinyl)quinolin-4(1H)-one]", "IC50": "< 1"},
      {"compound": "CC(=O)c1c(SCc2ccccc2)nc2c(Br)ccc(Cl)c2c1O", "note": "[Compound 52, 1-(2-(benzylthio)-8-bromo-5-chloro-4-hydroxyquinolin-3-yl)ethan-1-one]", "IC50": "< 1"},
      {"compound": "CC(=O)c1c([S+]([O-])Cc2ccccc2)nc2c(Br)ccc(Cl)c2c1O", "note": "(centres unmarked) [Compound 53, 1-(2-(benzylsulfinyl)-8-bromo-5-chloro-4-hydroxyquinolin-3-yl)ethan-1-one]", "IC50": "< 1"},
      {"compound": "COc1cccc(C[S+]([O-])c2[nH]c3c(Br)ccc(Cl)c3c(=O)c2C(C)=O)c1", "note": "(centres unmarked) [Compound 55, 3-acetyl-8-bromo-5-chloro-2-((3-methoxybenzyl)sulfinyl)quinolin-4(1H)-one]", "IC50": "< 1"},
      {"compound": "CC(=O)c1c([S+]([O-])Cc2ccc(SC(F)(F)F)cc2)[nH]c2c(Br)ccc(Cl)c2c1=O", "note": "(centres unmarked) [Compound 56, 3-acetyl-8-bromo-5-chloro-2-((4-((trifluoromethyl)thio)benzyl)sulfinyl)quinolin-4(1H)-one]", "IC50": "< 1"},
      {"compound": "CC(=O)c1c([S+]([O-])Cc2ccc([N+](=O)[O-])cc2)[nH]c2c(Cl)ccc(Cl)c2c1=O", "note": "(centres unmarked) [Compound 57, 3-acetyl-5,8-dichloro-2-((4-nitrobenzyl)sulfinyl)quinolin-4(1H)-one]", "IC50": "< 1"},
      {"compound": "CC(=O)c1c([S+]([O-])Cc2ccccc2C#N)[nH]c2c(Br)ccc(Cl)c2c1=O", "note": "(centres unmarked) [Compound 58, 2-(((3-acetyl-8-bromo-5-chloro-4-oxo-1,4-dihydroquinolin-2-yl)sulfinyl)methyl)benzonitrile]", "IC50": "< 1"},
      {"compound": "COc1cc(C[S+]([O-])c2[nH]c3c(Br)ccc(Cl)c3c(=O)c2C(C)=O)cc(OC)c1", "note": "(centres unmarked) [Compound 59, 3-acetyl-8-bromo-5-chloro-2-((3,5-dimethoxybenzyl)sulfinyl)quinolin-4(1H)-one]", "IC50": "< 1"},
      {"compound": "CC(=O)c1c([S+]([O-])Cc2ccc(C(C)(C)C)cc2)[nH]c2c(Br)ccc(Cl)c2c1=O", "note": "(centres unmarked) [Compound 60, 3-acetyl-8-bromo-2-((4-(tert-butyl)benzyl)sulfinyl)-5-chloroquinolin-4(1H)-one]", "IC50": "< 1"},
      {"compound": "COCSc1[nH]c2c(Br)ccc(Cl)c2c(=O)c1C(C)=O", "note": "[Compound 61, 3-acetyl-8-bromo-5-chloro-2-((methoxymethyl)thio)quinolin-4(1H)-one]", "IC50": "< 1"},
      {"compound": "CC(=O)c1c(S)[nH]c2c(Br)ccc(Cl)c2c1=O", "note": "[Compound 62, 3-acetyl-8-bromo-5-chloro-2-mercaptoquinolin-4(1H)-one]", "IC50": "< 1"},
      {"compound": "CC(=O)c1c([S+]([O-])Cc2ccc(C(=O)c3ccccc3)cc2)[nH]c2c(Br)ccc(Cl)c2c1=O", "note": "(centres unmarked) [Compound 63, 3-acetyl-2-((4-benzoylbenzyl)sulfinyl)-8-bromo-5-chloroquinolin-4(1H)-one]", "IC50": "< 1"},
      {"compound": "CC(=O)c1c([S+]([O-])Cc2ccc([S+]([O-])C(F)(F)F)cc2)[nH]c2c(Br)ccc(Cl)c2c1=O", "note": "(centres unmarked) [Compound 64, 3-acetyl-8-bromo-5-chloro-2-((4-((trifluoromethyl)sulfinyl)benzyl)sulfinyl)quinolin-4(1H)-one]", "IC50": "< 1"},
      {"compound": "CC(=O)c1c([S+]([O-])CC#N)[nH]c2c(Br)ccc(Cl)c2c1=O", "note": "(centres unmarked) [Compound 65, 2-((3-acetyl-8-bromo-5-chloro-4-oxo-1,4-dihydroquinolin-2-yl)sulfinyl)acetonitrile]", "IC50": "< 1"},
      {"compound": "CC(=O)c1c(SCC#N)[nH]c2c(Br)ccc(Cl)c2c1=O", "note": "[Compound 66, 2-((3-acetyl-8-bromo-5-chloro-4-oxo-1,4-dihydroquinolin-2-yl)thio)acetonitrile]", "IC50": "< 1"},
      {"compound": "CC(=O)c1c(S/C=C\\C(=O)O)[nH]c2c(Br)ccc(Cl)c2c1=O", "note": "[Compound 67, (Z)-3-((3-acetyl-8-bromo-5-chloro-4-oxo-1,4-dihydroquinolin-2-yl)thio)acrylic acid]", "IC50": "< 1"},
      {"compound": "CC(=O)c1c([S+]([O-])Cc2ccc(S(F)(F)(F)(F)F)cc2)[nH]c2c(Br)ccc(Cl)c2c1=O", "note": "(centres unmarked) [Compound 68, 3-acetyl-8-bromo-5-chloro-2-((4-(pentafluoro-16-sulfanyl)benzyl)sulfinyl)quinolin-4(1H)-one]", "IC50": "< 1"},
      {"compound": "CC(=O)c1c([S+]([O-])Cc2ccc(S(F)(F)(F)(F)F)cc2F)[nH]c2c(Br)ccc(Cl)c2c1=O", "note": "(centres unmarked) [Compound 69, 3-acetyl-8-bromo-5-chloro-2-((2-fluoro-4-(pentafluoro-16-sulfanyl)benzyl)sulfinyl)quinolin-4(1H)-one]", "IC50": "< 1"},
      {"compound": "CC(=O)c1c([S+]([O-])Cc2ccc(C(F)(F)F)cc2)[nH]c2c(Br)ccc(Cl)c2c1=O", "note": "(centres unmarked) [Compound 70, 3-acetyl-8-bromo-5-chloro-2-((4-(trifluoromethyl)benzyl)sulfinyl)quinolin-4(1H)-one]", "IC50": "< 1"},
      {"compound": "CC(=O)c1c([S+]([O-])Cc2ccc(OC(F)(F)F)cc2)[nH]c2c(Br)ccc(Cl)c2c1=O", "note": "(centres unmarked) [Compound 71, 3-acetyl-8-bromo-5-chloro-2-((4-(trifluoromethoxy)benzyl)sulfinyl)quinolin-4(1H)-one]", "IC50": "< 1"},
      {"compound": "CC(=O)c1c([S+]([O-])Cc2ccc(C(F)(F)F)o2)[nH]c2c(Br)ccc(Cl)c2c1=O", "note": "(centres unmarked) [Compound 72, 3-acetyl-8-bromo-5-chloro-2-(((5-(trifluoromethyl)furan-2-yl)methyl)sulfinyl)quinolin-4(1H)-one]", "IC50": "< 1"},
      {"compound": "CC(=O)c1c([S+]([O-])Cc2ccc(C#N)cc2)[nH]c2c(Br)ccc(Cl)c2c1=O", "note": "(centres unmarked) [Compound 73, 4-(((3-acetyl-8-bromo-5-chloro-4-oxo-1,4-dihydroquinolin-2-yl)sulfinyl)methyl)benzonitrile]", "IC50": "< 1"},
      {"compound": "CC(=O)c1c([S+]([O-])Cc2c(F)cccc2Cl)[nH]c2c(Br)ccc(Cl)c2c1=O", "note": "(centres unmarked) [Compound 74, 3-acetyl-8-bromo-5-chloro-2-((2-chloro-6-fluorobenzyl)sulfinyl)quinolin-4(1H)-one]", "IC50": "< 1"},
      {"compound": "COc1cc(S(F)(F)(F)(F)F)ccc1C[S+]([O-])c1[nH]c2c(Br)ccc(Cl)c2c(=O)c1C(C)=O", "note": "(centres unmarked) [Compound 75, 3-acetyl-8-bromo-5-chloro-2-((2-methoxy-4-(pentafluoro-λ6-sulfanyl)benzyl)sulfinyl)quinolin-4(1H)-one]", "IC50": "< 1"},
      {"compound": "CC(=O)c1c([S+]([O-])Cc2cc(F)cc(S(F)(F)(F)(F)F)c2)[nH]c2c(Br)ccc(Cl)c2c1=O", "note": "(centres unmarked) [Compound 76, 3-acetyl-8-bromo-5-chloro-2-((3-fluoro-5-(pentafluoro-λ6-sulfanyl)benzyl)sulfinyl)quinolin-4(1H)-one]", "IC50": "< 1"},
      {"compound": "CC(=O)c1c([S+]([O-])Cc2cccc(S(F)(F)(F)(F)F)c2)[nH]c2c(Br)ccc(Cl)c2c1=O", "note": "(centres unmarked) [Compound 77, 3-acetyl-8-bromo-5-chloro-2-((3-(pentafluoro-λ6-sulfanyl)benzyl)sulfinyl)quinolin-4(1H)-one]", "IC50": "< 1"},
      {"compound": "CC(=O)c1c([S+]([O-])Cc2c(F)c(F)c(F)c(F)c2F)[nH]c2c(Br)ccc(Cl)c2c1=O", "note": "(centres unmarked) [Compound 78, 3-acetyl-8-bromo-5-chloro-2-(((perfluorophenyl)methyl)sulfinyl)quinolin-4(1H)-one]", "IC50": "< 1"},
      {"compound": "CC(=O)c1c([S+]([O-])Cc2ccc(SC(F)(F)F)cc2)[nH]c2c(Cl)ccc(Cl)c2c1=O", "note": "(centres unmarked) [Compound 79, 3-acetyl-5,8-dichloro-2-((4-((trifluoromethyl)thio)benzyl)sulfinyl)quinolin-4(1H)-one]", "IC50": "< 1"},
      {"compound": "CC(=O)c1c([S+]([O-])Cc2ccc(S(F)(F)(F)(F)F)cc2)[nH]c2c(F)ccc(F)c2c1=O", "note": "(centres unmarked) [Compound 80, 3-acetyl-5,8-difluoro-2-((4-(pentafluoro-λ6-sulfanyl)benzyl)sulfinyl)quinolin-4(1H)-one]", "IC50": "< 1"},
      {"compound": "CC(=O)c1c([S+]([O-])Cc2ccc(C(F)(F)F)o2)[nH]c2c(F)ccc(F)c2c1=O", "note": "(centres unmarked) [Compound 81, 3-acetyl-5,8-difluoro-2-(((5-(trifluoromethyl)furan-2-yl)methyl)sulfinyl)quinolin-4(1H)-one]", "IC50": "< 1"},
      {"compound": "CC(=O)c1c([S+]([O-])Cc2cc(C)on2)[nH]c2c(F)ccc(F)c2c1=O", "note": "(centres unmarked) [Compound 82, 3-acetyl-5,8-difluoro-2-(((5-methylisoxazol-3-yl)methyl)sulfinyl)quinolin-4(1H)-one]", "IC50": "< 1"},
      {"compound": "CC(=O)c1c([S+]([O-])Cc2ccc(I)cc2)[nH]c2c(Cl)ccc(Cl)c2c1=O", "note": "(centres unmarked) [Compound 83, 3-acetyl-5,8-dichloro-2-((4-iodobenzyl)sulfinyl)quinolin-4(1H)-one]", "IC50": "< 1"},
      {"compound": "CC(=O)c1c([S+]([O-])Cc2cccnc2)[nH]c2c(Br)ccc(Cl)c2c1=O", "note": "(centres unmarked) [Compound 84, 3-acetyl-8-bromo-5-chloro-2-((pyridin-3-ylmethyl)sulfinyl)quinolin-4(1H)-one]", "IC50": "< 1"},
      {"compound": "CC(C)C(=O)c1c([S+]([O-])Cc2ccc(SC(F)(F)F)cc2)[nH]c2c(F)ccc(F)c2c1=O", "note": "(centres unmarked) [Compound 85, 5,8-difluoro-3-isobutyryl-2-((4-((trifluoromethyl)thio)benzyl)sulfinyl)quinolin-4(1H)-one]", "IC50": "< 1"},
      {"compound": "Cc1cc(C[S+]([O-])c2[nH]c3c(Cl)ccc(Cl)c3c(=O)c2C(=O)C(C)C)no1", "note": "(centres unmarked) [Compound 86, 5,8-dichloro-3-isobutyryl-2-(((5-methylisoxazol-3-yl)methyl)sulfinyl)quinolin-4(1H)-one]", "IC50": "< 1"}
    ]}
  ]
}
